# Test results reported in ChEMBL document CHEMBL1138532, “Global challenge of multidrug-resistant Acinetobacter baumannii” (Antimicrob Agents Chemother, 2007).
# Legend:
# Acinetobacter baumannii [1] = assay: Antimicrobial activity against drug-resistant Acinetobacter baumannii producing PER1 beta-lactamase; type: functional
# Acinetobacter baumannii [2] = assay: Antimicrobial activity against Acinetobacter baumannii isolates by E-test; type: functional, organism-based
# Acinetobacter baumannii [3] = assay: Antimicrobial activity against Acinetobacter baumannii isolate producing metallo beta-lactamase by agar dilution method; type: functional
# Acinetobacter baumannii [4] = assay: Antimicrobial activity against Acinetobacter baumannii isolate producing IMP-4 beta-lactamase by agar dilution method; type: functional
# Acinetobacter baumannii [5] = assay: Antimicrobial activity against Acinetobacter baumannii isolate producing OXA-23 beta-lactamase by agar dilution method; type: functional
# Homo sapiens = species: Homo sapiens; assay: […] in carbapenem-resistant Acinetobacter baumannii infected human assessed as incidence of acute renal failure; type: toxicity, organism-based; settings: in vivo
# Acinetobacter baumannii [6] = assay: Antimicrobial activity against carbapenem-resistant Acinetobacter baumannii expressing ISAba1; type: functional
# Acinetobacter baumannii [7] = assay: Antimicrobial activity against carbapenem-resistant Acinetobacter baumannii expressing ISAba3; type: functional
compound,measurement,setting,value
CO/N=C(\C(=O)N[C@@H]1C(=O)N2C(C(=O)[O-])=C(C[N+]3(C)CCCC3)CS[C@H]12)c1csc(N)n1 [CEFEPIME],MIC,Acinetobacter baumannii [1],32 µg/mL
COLISTIN [listing 1 of 2 here],MIC,Acinetobacter baumannii [2],1 µg/mL
CC(C)(O/N=C(\C(=O)N[C@@H]1C(=O)N2C(C(=O)[O-])=C(C[n+]3ccccc3)CS[C@H]12)c1csc(N)n1)C(=O)O [CEFTAZIDIME],MIC,Acinetobacter baumannii [1],256 µg/mL
C[C@@H](O)[C@H]1C(=O)N2C(C(=O)O)=C(S[C@@H]3CN[C@H](CNS(N)(=O)=O)C3)[C@H](C)[C@H]12 [DORIPENEM],MIC,Acinetobacter baumannii [3],≤ 4 µg/mL
same,MIC50,Acinetobacter baumannii [3],0.5 µg/mL
same,MIC90,Acinetobacter baumannii [3],16 µg/mL
same,MIC,Acinetobacter baumannii [4],≤ 4 µg/mL
same,MIC50,Acinetobacter baumannii [4],0.5 µg/mL
same,MIC90,Acinetobacter baumannii [4],16 µg/mL
same,MIC,Acinetobacter baumannii [5],≤ 4 µg/mL
same,MIC50,Acinetobacter baumannii [5],0.5 µg/mL
same,MIC90,Acinetobacter baumannii [5],16 µg/mL
COLISTIN [listing 2 of 2 here],Activity,Homo sapiens,14%
C[C@@H](O)[C@H]1C(=O)N2C(C(=O)O)=C(S[C@@H]3CN[C@H](C(=O)N(C)C)C3)[C@H](C)[C@H]12 [MEROPENEM],MIC,Acinetobacter baumannii [6],≥ 32 µg/mL
same,MIC,Acinetobacter baumannii [7],≥ 32 µg/mL
C[C@@H](O)[C@H]1C(=O)N2C(C(=O)O)=C(SCCNC=N)C[C@H]12 [IMIPENEM ANHYDROUS],MIC,Acinetobacter baumannii [6],≥ 32 µg/mL
same,MIC,Acinetobacter baumannii [7],≥ 32 µg/mL
